Data from patent publication US20240417425A1 (priority 2021, published 2024).
Like-named read-outs stand apart in the source and are kept apart here.

Columns and labels:
[1] = system: MHV, FIPV, Middle East respiratory syndrome (MERS)-CoV, VSV, IAV; details: cited from earlier work
Na^+, K^+-ATPase = details: for Inhibition of brain microsomal Na+,K+-ATPase activity, potency in comparison to Bufalin: FIGS. 2 and 3
quail cardiomyocytes = details: for Effect on cardiomyocytes contractility compared to digoxin: all concentrations tested, 10 minutes and 30 minutes after addition (FIGS. 5, 6)
NCI-60 cell line panel = test: NCI-60 one-dose cancer cell growth testing; type: cell-based, human; details: FIGS. 13-15
Description: The anti-proliferative activity of the target compounds was tested against the NCI-60 cell line panel. The screening was performed at the National Cancer Institute (NCI), Bethesda, Maryland, USA (www.dtp.nci.nih.gov), according to their standard protocol (https://dtp.cancer.gov/discovery_development/nci-60/methodology.htm).
In the anti-cancer studies were performed at the NCI, NIH in the one-dose testing of the NCI-60 project (https://dtp.cancer.gov/discovery_development/nci-60/methodology.htm). The numbers reported are growth relative to the no-drug control, and relative to the time zero number of cells. This allows detection of both growth inhibition (values between 0 and 100) and lethality (values less than 0). For example, a value of 100 means no growth inhibition. A value of 40 would mean 60% growth inhibition. A value of 0 means no net growth over the course of the experiment. A value of −40 would mean 40% lethality. A value of −100 means all cells are dead.

[2] = system: Neuroblastoma (SH-SY5Y) cells
in vitro = details: human
[3] = system: Japanese Encephalitis Virus; details: cited from earlier work
[4] = system: Chikungunya virus (CHIKV); details: human cells; cited from earlier work
[5] = system: transmissible gastroenteritis coronavirus (TGEV); details: swine testicular (ST) cells; cited from earlier work
herpes simplex virus = details: cited from earlier work
[6] = system: Human respiratory syncytial virus (RSV); details: human small airway epithelial cells; cited from earlier work
influenza virus = details: cited from earlier work

Row | Structure (SMILES) | Inhibition of brain microsomal Na+,K+-ATPase activity, potency in comparison to Bufalin (Na^+, K^+-ATPase) | Effect on cardiomyocytes contractility compared to digoxin (quail cardiomyocytes) | Most sensitive cancer cell line (NCI-60 cell line panel) | Cytotoxic potency in comparison to the other steroids [2] | viability at 5 µM (in vitro) | viability at 25 µM (in vitro) | viability at 50 µM (in vitro) | viability at 100 µM (in vitro) | Efficiency against Japanese Encephalitis Virus [3] | Effect on infection by CHIKV [4] | further results
1 | C[C@]12CC[C@H](O)C[C@H]1CC[C@@H]1[C@@H]2CC[C@]2(C)[C@@H](c3ccc(=O)oc3)CC[C@]12O [Bufalin, bufalin] |  |  |  |  |  |  |  |  |  |  | Effect on infection of cells with viruses [1]: inhibited infection of cells with MHV, FIPV, Middle East respiratory syndrome (MERS)-CoV, and VSV, but not IAV
2 | C[C@]12CC=CCC1CCC1C2CC[C@]2(C)[C@@H](c3ccc(=O)oc3)CC[C@]12O (stereo partly drawn) [Compound 1, bufalin 2,3-ene] | approximately the same potency as Bufalin | stronger effect on contractility than digoxin | SNB-19 | lower cytotoxic potency | 32.2% | 13.8% | 5.62% | 1.28% |  |  | 
3 | C[C@]12CCC=CC1CCC1C2CC[C@]2(C)[C@@H](c3ccc(=O)oc3)CC[C@]12O (stereo partly drawn) [Compound 2, bufalin 3,4-ene] | more potent inhibitor | stronger effect on contractility than digoxin | SNB-19 | lower cytotoxic potency | 53.8% | 24.7% | 11.5% | 6.13% |  |  | Inhibition of Na+,K+-ATPase activity at very low concentrations in comparison to Bufalin (Na^+, K^+-ATPase; very low (nanomolar) concentrations): better than Bufalin
4 | C[C@H]1O[C@@H](O[C@H]2[C@@H](O)C[C@H](O[C@H]3[C@@H](O)C[C@H](O[C@H]4CC[C@@]5(C)[C@H](CC[C@@H]6[C@@H]5C[C@@H](O)[C@]5(C)[C@@H](C7=CC(=O)OC7)CC[C@]65O)C4)O[C@@H]3C)O[C@@H]2C)C[C@H](O)[C@@H]1O [Digoxin, digoxin] |  |  |  |  | 23.4% | 1.02% | 0.26% | 2.55% | robust efficiency against the virus | dose-dependent decrease in infection | 
5 | C[C@@H]1O[C@@H](O[C@H]2C[C@@H](O)[C@]3(CO)[C@H]4[C@H](O)C[C@]5(C)[C@@H](C6=CC(=O)OC6)CC[C@]5(O)[C@@H]4CC[C@]3(O)C2)[C@H](O)[C@H](O)[C@H]1O [Ouabain, ouabain] |  |  |  |  | 6.26% | 1.92% | 0.51% | 4.09% | robust efficiency against the virus | dose-dependent decrease in infection | Effect on TGEV-induced production of IL-6 [5]: inhibit the TGEV-induced production of IL-6 in a dose dependent manner; Reduction of expression of viral immediate-early and early genes (herpes simplex virus): at least 5 fold; Effect on RSV entry [6]: inhibited; Effect on infection of cells with viruses ([1]; nM concentrations): inhibited infection of cells with MHV, FIPV, Middle East respiratory syndrome (MERS)-CoV, and VSV, but not IAV; Effect on influenza virus replication (influenza virus): decrease influenza virus replication
6 | NC[C@H](O)c1ccc(O)c(O)c1 [noradrenaline] |  |  |  |  |  |  |  |  |  |  | Effect on cardiomyocytes contractility (quail cardiomyocytes; dose-dependently, FIG. 4): increased
